Measurements published in PMC6687188, “Novel lactate dehydrogenase inhibitors with in vivo efficacy against Cryptosporidium parvum” (PLoS Pathogens, 2019).

Target: recombinant CpLDH protein (Cryptosporidium parvum, UniProt Q9GT92, F198L/K295E/R251K)

SMILES | MEAN CpLDH INHIBITION (%)
CCCCOc1ccc(NC(N)=Nc2ccc(Cl)cc2)cc1 [NSC78365] | -60.70%
CCOC(=O)Cc1cc(=O)oc2cc(O)ccc12 [NSC667235] | -25.51%
CC(C)C[C@H]1C(=O)N2CCC[C@H]2[C@]2(O)O[C@](NC(=O)[C@@H]3C=C4c5cccc6[nH]c(Br)c(c56)C[C@H]4N(C)C3)(C(C)C)C(=O)N12.CS(=O)(=O)O [NSC169774] | -107.83%
Cl.Nc1ccc2cc3ccc(N)cc3nc2c1 [NSC605756] | -35.77%
CCOC(=O)c1ccc(N=Cc2ccc(N(CCC#N)CCC#N)cc2)cc1 [NSC620279] | -17.13%
CC1=C/C(=N\OCC(=O)O)CC(c2ccc(C(C)C)cc2)C1 (stereo not drawn) [NSC680506] | -8.88%
CC(=O)[O][Sn]([CH2]c1ccccc1)([CH2]c1ccccc1)[CH2]c1ccccc1 [NSC164909] | -58.07%
CN(Cc1cnc2nc(N)nc(N)c2n1)c1ccc(C(=O)N[C@@H](CCC(=O)O)C(=O)O)c2ccccc12 [NSC174121] | -134.26%
Cn1cnc([N+](=O)[O-])c1Sc1nnc(-c2cccnc2)n1C [NSC631160] | -15.11%
Nc1ncnc2c([C@@H]3O[C@H](CO)[C@@H](O)[C@H]3O)c[nH]c12 [NSC352890] | -27.24%
CC(=O)[O][Pb]([O]C(C)=O)([c]1ccccc1)[c]1ccccc1 [NSC173046] | -141.42%
COC(=O)c1c[nH]c2c1-c1cc(C(=O)OCc3ccccc3)n(S(=O)(=O)c3ccc(C)cc3)c1C(=O)C2=O [NSC679524] | -184.78%
NC1=C(Br)C(=O)c2ncccc2C1=O [NSC105808] | -67.00%
CC[C@@]1(O)C[C@H](O[C@H]2C[C@H](N(C)C)[C@H](O)[C@H](C)O2)c2c(cc3c(c2O)C(=O)c2c(O)ccc(O)c2C3=O)[C@H]1C(=O)OC [NSC267229] | -179.02%
C=Cc1cc(OC)c2c(c1)c(=O)oc1c2cc(OC)c2c(O)ccc(C3OC(C)C(O)C(C)(O)C3O)c21 (stereo not drawn) [NSC354844] | -68.14%
CCOC(=O)C(CC(C)C)NC(=O)C(Cc1ccc(N(CCCl)CCCl)cc1)NC(C)=O (stereo not drawn) [NSC167780] | -51.52%
Cl.O=C1C=CC(=O)c2c(O)c(N3CCN(CCOCCO)CC3)c(Br)c(O)c21 [NSC659999] | -30.12%
CCOC(=O)/C=C/c1c(C)[nH]c(=O)[nH]c1=O [NSC159935] | -51.31%
CN(C)CCCN1c2ccccc2Sc2ccc3ccccc3c21 [NSC18891] | -7.99%
CCCCCCCCCCSCC(CO)NC(=O)/C=C/c1c(C)[nH]c(=O)[nH]c1=O (stereo not drawn) [NSC265473] | -39.94%
C[Si](C)(CN)CN.[Cl][Pt][Cl] [NSC603577] | -0.38%
O=C(O)/C=C\C(=O)O.[N-]=[N+]=Nc1ccc2c(c1)Sc1ccccc1N2CCCCN1CCN(Cc2ccc(C(=O)c3ccccc3)cc2)CC1 [NSC676963] | -97.54%
C[C@H]1O[C@@H](c2ccc3c(c2O)C(=O)C2=C(C3=O)[C@@]3(O)C(=O)C[C@](C)(O)C[C@@]3(O)C=C2)C[C@@H](O)[C@@H]1O [NSC184398] | -31.06%
COc1cc(/C=C(\OC(C)=O)c2ccc3c(c2)OCO3)cc(OC)c1OC [NSC647363] | -3.74%
O=C(CC1(O)C(=O)Nc2c(Cl)cc(Cl)cc21)c1ccc([N+](=O)[O-])cc1 (stereo not drawn) [NSC635326] | -38.78%
Cc1cc(C)c(NC(=O)/C=C/c2ccccc2)c(C)c1 [NSC191384] | -34.30%
C=C(Cl)C(Cl)(CBr)CCC(Br)C(C)(C)Cl (stereo not drawn) [NSC662825] | -7.35%
N.N.[Cl][Pt][Cl] [NSC119875] | -45.38%
Cc1nnc(-n2c(O)cc(=O)n(-c3ccccc3)c2=S)nc1/C=C/c1ccc(N(C)C)cc1 [NSC698031] | -6.31%
CCCNC1=C(C)C(=O)C2=C(C1=O)[C@H](COC(N)=O)[C@]1(OC)[C@@H]3N[C@@H]3CN21 [NSC123115] | -0.99%
